Results: patent US6106744A, “Photochromic pyrano-fused naphthopyrans” (PPG Industries Ohio, Inc., priority 1997, dated 2000)

Key:
[1] = Photochromic response of test squares on an optical bench; type: physicochemical; conditions: for Bleach Rate T 1/2: time to one half the highest absorbance at room temperature (72° F., 22.2° C.) after removal of activating light; for Sensitivity ΔOD/min: first five (5) seconds of UV exposure, expressed per minute, 72° F. (22.2° C.), 0.15 to 0.20 mW/cm^2
Protocol: (§1) Testing was done with the photochromic compounds prepared in Examples 1, 2, 3 and 4 in the following manner. A quantity of each photochromic compound calculated to yield a 1.5×10^-3 molal solution was added to a flask containing 50 grams of a monomer blend of 4 parts ethoxylated bisphenol A dimethacrylate (BPA 2EO DMA), 1 part poly(ethylene glycol) 600 dimethacrylate, and 0.033 weight percent 2,2'-azobis(2-methyl propionitrile) (AIBN). Each photochromic compound was dissolved into the monomer blend by stirring and gentle heating. After a clear solution was obtained, it was poured into a flat sheet mold having the interior dimensions of 2.2 mm×6 inches (15.24 cm)×6 inches (15.24 cm). The mold was sealed and placed in a horizontal air flow, programmable oven programmed to increase the temperature from 40° C. to 95° C. over a 5 hour interval, hold the temperature at 95° C. for 3 hours, lower it to 60° C. over a 2 hour interval and then hold at 60° C. for 16 hours. After the mold was opened, the polymer sheet was cut using a diamond blade saw into 2 inch (5.1 centimeters) test squares.
The photochromic test squares prepared in Part A were tested for photochromic response on an optical bench. Prior to testing on the optical bench, the photochromic test squares were exposed to 365 nanometer ultraviolet light for about 15 minutes to activate the photochromic compounds and then placed in a 76° C. oven for about 15 minutes to bleach or inactivate the photochromic compounds. The test squares were then cooled to room temperature, exposed to fluorescent room lighting for at least 2 hours and then kept covered for at least 2 hours prior to testing on an optical bench maintained at 72° F. (22.2° C.). The bench was fitted with a 150 watt Xenon arc lamp, a remote controlled shutter, a copper sulfate bath acting as a heat sink for the arc lamp, a Schott WG-320 nm cut-off filter which removes short wavelength radiation; neutral density filter(s) and a sample holder in which the square to be tested was inserted. The power output of the optical bench, i.e., the dosage of light that the sample lens would be exposed to, was calibrated with a photochromic test square used as a reference standard. […] The UV-A detector was placed into the sample holder and the light output was measured. […]
A monitoring, collimated beam of light from a tungsten lamp was passed through the square at a small angle (approximately 30° ) normal to the square. After passing through the square, the light from the tungsten lamp was directed to a detector through Spectral Energy Corp. GM-200 monochromator set at the previously determined visible lambda max of the photochromic compound being measured. […]
Change in optical density (ΔOD) was determined by inserting a test square in the bleached state into the sample holder, adjusting the transmittance scale to 100% opening the shutter from the Xenon lamp to provide ultraviolet radiation to change the test square from the bleached state to an activated (i.e., darkened) state, measuring the transmittance in the activated state, and calculating the change in optical density according to the formula: ΔOD=log (100/%Ta), where %Ta is the percent transmittance in the activated state and the logarithm is to the base 10.
The Δ OD/Min, which represents the sensitivity of the photochromic compound's response to UV light, was measured over the first five (5) seconds of UV exposure, then expressed on a per minute basis. […]

[2] = lambda max (Vis) of activated form in test square polymerizates (Varian Cary 3 UV-Visible spectrophotometer); type: physicochemical; conditions: activated (colored) form in test square; BPA 2EO DMA / poly(ethylene glycol) 600 dimethacrylate polymer
Protocol: as §1
The Δ OD/Min, which represents the sensitivity of the photochromic compound's response to UV light, was measured over the first five (5) seconds of UV exposure, then expressed on a per minute basis. The saturation optical density (Δ OD@ Saturation) was taken under identical conditions as the Δ OD/Min, except UV exposure was continued for 15 minutes. The lambda max (Vis) is the wavelength in nanometers (nm) in the visible spectrum at which the maximum absorption of the activated (colored) form of the photochromic compound in a test square occurs. The lambda max (Vis) wavelength was determined by testing the photochromic test square polymerizates of Part A in a Varian Cary 3 UV-Visible spectrophotometer. The Bleach Rate (T 1/2) is the time interval in seconds for the absorbance of the activated form of the photochromic compound in the test squares to reach one half the highest absorbance at room temperature (72° F., 22.2° C.) after removal of the source of activating light.

SMILES | Bleach Rate T 1/2 [1] | lambda max (Vis) [2] | Sensitivity ΔOD/min [1]
Cc1ccc2c3c(c4c(=O)oc(C(c5ccccc5)c5ccccc5)cc4c2c1)C=CC(c1ccccc1)(c1ccccc1)O3 [Example 1, 2,2-diphenyl-7-diphenylmethyl-10-methyl-2,5-dihydro-5-oxo-pyrano[3',4':3,4]naphtho[1,2-b]pyran] | 0.833 min | 492 nanometers | 
COc1ccc(C2(c3ccc(OC)cc3)C=Cc3c4c(c5cc(C)ccc5c3O2)C=C(C(c2ccccc2)c2ccccc2)OC4)cc1 [Example 3, 2,2-di(4-methoxyphenyl)-7-diphenylmethyl-10-methyl-2,5-dihydro-pyrano[3',4':3,4]naphtho[1,2-b]pyran] | 3.03 min | 569 nanometers | 0.33 ΔOD/min
Cc1ccc2c3c(c4c(c2c1)C=C(C(c1ccccc1)c1ccccc1)OC4)C=CC(c1ccccc1)(c1ccc(N2CCOCC2)cc1)O3 (centres unmarked) [Example 4, 2-phenyl-2-(4-morpholinophenyl)-7-diphenylmethyl-10-methyl-2,5-dihydro-pyrano[3',4':3,4]naphtho[1,2-b]pyran] | 4.68 min | 592 nanometers | 0.39 ΔOD/min
